Reference: patent US20190359609A1, “BICYCLIC OGA INHIBITOR COMPOUNDS” (Janssen Pharmaceutica NV, priority 2016, published 2019)
Where two headings read alike, the source gives them in different places.

Target: T1, recombinant human Meningioma Expressed Antigen 5 (MGEA5), also referred to as O-GlcNAcase (OGA) (Homo sapiens, UniProt O60502)
T1 construct: Full length OGA enzyme was purchased at OriGene (cat # TP322411); purchased OriGene TP322411
T1 sequence (O60502 1-916): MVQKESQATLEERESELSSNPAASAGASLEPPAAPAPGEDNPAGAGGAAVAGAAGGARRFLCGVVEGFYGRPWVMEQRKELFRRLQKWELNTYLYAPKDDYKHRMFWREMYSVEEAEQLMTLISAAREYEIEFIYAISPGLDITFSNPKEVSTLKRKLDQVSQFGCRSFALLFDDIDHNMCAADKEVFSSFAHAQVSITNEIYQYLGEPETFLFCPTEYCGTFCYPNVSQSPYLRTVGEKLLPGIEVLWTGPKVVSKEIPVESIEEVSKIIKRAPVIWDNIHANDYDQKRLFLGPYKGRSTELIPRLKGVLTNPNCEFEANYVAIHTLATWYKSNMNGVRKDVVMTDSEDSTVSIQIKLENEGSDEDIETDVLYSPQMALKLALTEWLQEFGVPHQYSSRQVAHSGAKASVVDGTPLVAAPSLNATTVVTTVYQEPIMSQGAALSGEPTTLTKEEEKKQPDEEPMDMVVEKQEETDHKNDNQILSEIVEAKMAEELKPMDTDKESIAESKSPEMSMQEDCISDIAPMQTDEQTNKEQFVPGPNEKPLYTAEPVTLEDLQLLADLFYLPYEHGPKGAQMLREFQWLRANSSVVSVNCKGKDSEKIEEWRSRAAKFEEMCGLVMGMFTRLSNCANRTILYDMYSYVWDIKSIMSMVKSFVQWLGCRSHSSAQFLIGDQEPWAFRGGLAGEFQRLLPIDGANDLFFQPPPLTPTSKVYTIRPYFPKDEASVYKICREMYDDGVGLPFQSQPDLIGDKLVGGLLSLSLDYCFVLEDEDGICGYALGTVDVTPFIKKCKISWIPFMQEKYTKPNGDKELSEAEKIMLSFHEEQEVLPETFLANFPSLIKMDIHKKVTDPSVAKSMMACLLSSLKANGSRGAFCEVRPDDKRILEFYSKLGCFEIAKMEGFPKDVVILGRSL
Assay: OGA biochemical assay: inhibition of FM-GlcNAc hydrolysis, fluorescence (protocol A 10 nM OGA, 1 h; protocol B 2 nM OGA, 6 h)
Text: The assay is based on the inhibition of the hydrolysis of fluorescein mono-B-D-N-Acetyl-Glucosamine (FM-GlcNAc) (Mariappa et al. 2015, Biochem J 470:255) by the recombinant human Meningioma Expressed Antigen 5 (MGEA5), also referred to as 0-GlcNAcase (OGA). The hydrolysis FM-GlcNAc (Marker Gene technologies, cat # M1485) results in the formation of β-D-N-glucosamineacetate and fluorescein. The fluorescence of the latter can be measured at excitation wavelength 485 nm and emission wavelength 538 nm. An increase in enzyme activity results in an increase in fluorescence signal. Full length OGA enzyme was purchased at OriGene (cat # TP322411). The enzyme was stored in 25 mM Tris.HCl, pH 7.3, 100 mM glycine, 10% glycerol at −20° C. Thiamet G and GlcNAcStatin were tested as reference compounds (Yuzwa et al. 2008 Nature Chemical Biology 4:483; Yuzwa et al. 2012 Nature Chemical Biology 8:393). The assay was performed in 200 mM Citrate/phosphate buffer supplemented with 0.005% Tween-20. 35.6 g Na2HPO4 2 H2O (Sigma, # C0759) were dissolved in 1 L water to obtain a 200 mM solution. 19.2 g citric acid (Merck, #1.06580) was dissolved in 1 L water to obtain a 100 mM solution. pH of the sodiumphosphate solution was adjusted with the citric acid solution to 7.2. The buffer to stop the reaction consists of a 500 mM Carbonate buffer, pH 11.0. 734 mg FM-GlcNAc were dissolved in 5.48 mL DMSO to obtain a 250 mM solution and was stored at −20° C. OGA was used at a 10 nM (protocol A) or 2 nM (protocol B) concentration and FM-GlcNAc at a 100 uM final concentration. Dilutions were prepared in assay buffer.
50 nl of a compound dissolved in DMSO was dispensed on Black Proxiplate™ 384 Plus Assay plates (Perkin Elmer, #6008269) and 3 μl fl-OGA enzyme mix added subsequently. Plates were pre-incubated for 60 min at room temperature and then 2 μl FM-GlcNAc substrate mix added. […] Plates were briefly centrifuged for 1 min at 1000 rpm and incubate at room temperature for 1 h (10 nM OGA, protocol A) or 6 h (2 nM OGA, protocol B). To stop the reaction 5 μl STOP buffer were added and plates centrifuge again 1 min at 1000 rpm. Fluorescence was quantified in the Thermo Scientific Fluoroskan Ascent or the PerkinElmer EnVision with excitation wavelength 485 nm and emission wavelength 538 nm.
For analysis a best-fit curve is fitted by a minimum sum of squares method. From this an IC50 value and Hill coefficient was obtained. High control (no inhibitor) and low control (saturating concentrations of standard inhibitor) were used to define the minimum and maximum values.

[1] = Enzymatic protocol B (2 nM OGA, 6 h), read-out: Enzymatic Emax (%)
[2] = Enzymatic protocol B (2 nM OGA, 6 h), read-out: Enzymatic hOGA, pIC50 (converted)
[3] = Enzymatic protocol B (2 nM OGA, 6 h)
[4] = Enzymatic protocol A (10 nM OGA, 1 h), read-out: Enzymatic Emax (%)
[5] = Enzymatic protocol A (10 nM OGA, 1 h), read-out: Enzymatic hOGA, pIC50 (converted)
[6] = comparative table, protocol not given, read-out: Emax (OGA inhibitory activity, comparison with 1,4-disubstituted piperidine comparator)
[7] = comparative table, protocol not given, read-out: pIC50 (OGA inhibitory activity, comparison with 1,4-disubstituted piperidine comparator) (converted)

Row | SMILES | Emax [1] | IC50 [2] | Enzymatic Emax (%) [3] | other results
1 | Cn1c(CN2CCCC(c3cc4ncccc4n3C)C2)cc2ccccc21 (centres unmarked) [Compound 54] | 69.1% | 4.07 µM |  | 
2 | CC(c1ccc2c(c1)OCO2)N1CCCC(c2cc3ncccc3n2C)C1 (single isomer, unassigned) [Compound 46] |  | > 10 µM | 24.2% | 
3 | Cn1c(C2CCCN(Cc3ccc4cccnc4c3)C2)cc2ncccc21 (centres unmarked) [Compound 63] | 23.9% | > 10 µM |  | 
4 | CC(c1ccc2c(c1)OCCO2)N1CCCC(c2cc3ncccc3[nH]2)C1 (single isomer, unassigned) [Compound 34] | 93.8% | 0.708 µM |  | 
5 | CC(c1ccc2c(c1)OCO2)N1CCCC(c2cc3ncccc3n2C)C1 (racemic) [Compound 44] | 99% | 0.0832 µM |  | 
6 | Cn1c(C2CCCN(Cc3ccc4nccnc4c3)C2)cc2ncccc21 (single isomer, unassigned) [Compound 42] |  | 0.776 µM | 93.2% | 
7 | Cn1c(C2CCCN(Cc3ccc4nccnc4c3)C2)cc2ncccc21 (centres unmarked) [Compound 41] | 89.8% | 1.26 µM |  | 
8 | CC(=O)N(C)c1ncc(CN2CCCC(c3cc4ncccc4[nH]3)C2)s1 (centres unmarked) [Compound 10] | 90.1% | 1.02 µM |  | 
9 | Cn1c(C2CCCN(Cc3cc4c(cn3)OCCO4)C2)cc2ncccc21 (centres unmarked) [Compound 50] | 52.3% | 8.71 µM |  | 
10 | CC(c1ccc2c(c1)OCO2)N1CCCC(c2cc3ncccc3n2C)C1 (single isomer, unassigned) [Compound 45] |  | 0.0275 µM | 100% | 
11 | Cn1c(C2CCCN(Cc3ccc4nsnc4c3)C2)cc2ncccc21 (centres unmarked) [Compound 52] | 72.2% | 3.98 µM |  | 
12 | CC(=O)Nc1ncc(CN2CCOC(c3cc4ncccc4[nH]3)C2)s1 (centres unmarked) [Compound 27] | 77.3% | 3.16 µM |  | 
13 | CC(c1ccc2c(c1)OCCO2)N1CCCC(c2cc3ncccc3[nH]2)C1 (single isomer, unassigned) [Compound 36] |  | 0.011 µM | 101.3% | 
14 | CC(=O)Nc1ncc(S(=O)(=O)N2CCCC(c3nc4ncccc4[nH]3)C2)s1 (centres unmarked) [Compound 1] |  |  |  | Emax [4]: 75.9%; IC50 [5]: 1.86 µM
15 | CC(c1ccc2c(c1)OCO2)N1CCCC(c2cc3ncccc3n2C)C1 (single isomer, unassigned) [Compound 47] |  | 1.55 µM | 85.8% | 
16 | CC(c1ccc2c(c1)OCO2)N1CCCC(c2cc3ncccc3[nH]2)C1 (single isomer, unassigned) [Compound 32] |  | 1.78 µM | 89.4% | 
17 | CC(=O)Nc1ncc(CN2CCCC(c3cc4cnccc4[nH]3)C2)s1 (single isomer, unassigned) [Compound 13] | 98.9% | 0.0229 µM |  | 

Row | SMILES | Emax [1] | IC50 [2] | Enzymatic Emax (%) [3] | other results
18 | CC(c1ccc2c(c1)OCO2)N1CCCC(c2cc3ncccc3[nH]2)C1 (single isomer, unassigned) [Compound 29] |  | 3.72 µM | 73.5% | 
19 | Cn1c(C2CCCN(Cc3ccc4scnc4c3)C2)cc2ncccc21 (centres unmarked) [Compound 53] | 97.2% | 0.832 µM |  | 
20 | Cn1c(C2CCCN(Cc3ccc4nccnc4c3)C2)cc2ncccc21 (single isomer, unassigned) [Compound 43] |  | > 10 µM | 46.5% | 
21 | CC(=O)Nc1ncc(CN2CCC(c3cc4ncccc4[nH]3)CC2)s1 [comparator, reference compound] |  |  |  | Emax [6]: 103%; IC50 [7]: 0.224 µM
22 | CC(=O)Nc1ncc(CN2CCCC(c3cc4cnccc4[nH]3)C2)s1 (single isomer, unassigned) [Compound 14] |  | 0.676 µM | 96.3% | 
23 | CC(c1ccc2c(c1)OCO2)N1CCCC(c2cc3ncccc3[nH]2)C1 (single isomer, unassigned) [Compound 30] |  | 4.07 µM | 75.1% | 
24 | Cn1c(C2CCCN(Cc3ccc4ccccc4n3)C2)cc2ncccc21 (centres unmarked) [Compound 51] | 56.7% | 7.76 µM |  | 
25 | Cn1c(C2CCCN(Cc3cnc4c(c3)OCCO4)C2)cc2ncccc21 (centres unmarked) [Compound 55] | 81.5% | 2.19 µM |  | 
26 | CC(=O)Nc1ncc(CN2CCNC(c3cc4ncccc4[nH]3)C2)s1 (centres unmarked) [Compound 57] | 60.8% | 6.61 µM |  | 
27 | CC(=O)Nc1ncc(CN2CCCC(Cn3ccc4ncccc43)C2)s1 (centres unmarked) [Compound 64] | 100% | 0.00776 µM |  | 
28 | CC(c1ccc2c(c1)OCO2)N1CCCC(c2cc3ncccc3n2C)C1 (single isomer, unassigned) [Compound 48] |  | > 10 µM | 31.7% | 
29 | CC(=O)Nc1ncc(S(=O)(=O)N2CCCC(c3cc4ncccc4[nH]3)C2)s1 (single isomer, unassigned) [Compound 3] |  |  |  | Enzymatic Emax (%) (Enzymatic protocol A (10 nM OGA, 1 h)): 99%; IC50 [5]: 0.562 µM
30 | CC(c1ccc2c(c1)OCCO2)N1CCCC(c2cc3ncccc3[nH]2)C1 (single isomer, unassigned) [Compound 37] |  | 0.955 µM | 96.0% | 
31 | CC(=O)Nc1ncc(CN2CCCC(c3cc4ncccc4[nH]3)C2)s1 (centres unmarked) [Compound 5] |  |  |  | Emax [4]: 99.7%; IC50 [5]: 0.0257 µM; Emax [6]: 99.7%; IC50 [7]: 0.0257 µM; OGA inhibitory activity compared with comparator (greater than the corresponding 1,4-disubstituted piperidine compound (comparator)): ~1 order of magnitude
32 | c1cnc2cc(C3CCCN(Cc4ccc5c(c4)OCO5)C3)[nH]c2c1 (centres unmarked) [Compound 38] |  |  |  | Emax [4]: 99.9%; IC50 [5]: 1.74 µM
33 | CC(c1ccc2c(c1)OCCO2)N1CCCC(c2cc3ncccc3[nH]2)C1 (single isomer, unassigned) [Compound 35] |  | 2.45 µM | 87.7% | 
34 | Cn1c(C2CCCN(Cc3nc4ccccc4n3C)C2)cc2ncccc21 (centres unmarked) [Compound 56] | 98% | 0.832 µM |  | 
